# Reference: US8859527B2 (priority 2009, dated 2014)
# Tests used:
# [1] = test system: A-549 (human lung adenocarcinoma cell line); assay: in vitro growth inhibition of tumor cells, A-549; assay type: cell-based; conditions: for Inhibition effects on in vitro growth: A549, 48 hours
# Method: (§1) The tumor strains are A-549 (human lung adenocarcinoma cell line), BGC-823 (human gastric cancer cell line), C-6 (rat neurogliocytoma cell line), Hep G2 (human hepatic cancer cell line), HL-60 (human leukemia cell line), K-562 (human erythremia cell line) and Hela (human cervical cancer cell line). […] The drug was prepared as a stock solution of 10^−2 M by using physiological saline and diluted into the test solution in a gradient composed of five concentrations: C1 5×10^−5 M, C2 10^−5 M, C3 10^−6 M, C4 10^−7 M and C5 10^−8 M.
# (§2) Experimental method: different tumor cells in exponential growth phase are inoculated in 96-well plates in a certain amount and the selected samples are added after the cells are cultured for 24 hours (suspension cells can be directly added after being inoculated), after the cells are incubated at 37° C. and 5% CO2 for another 48 hours, […] is added for further incubation for another 4 hours, and finally the samples are examined on a microplate reader after dissolving with DMSO.
# [2] = test system: C-6 (rat neurogliocytoma cell line); assay: in vitro growth inhibition of tumor cells, C-6; assay type: cell-based; conditions: C6; for Inhibition effects on in vitro growth: 48 hours
# Method: as §1, §2
# [3] = test system: K-562 (human erythremia cell line); assay: in vitro growth inhibition of tumor cells, K-562; assay type: cell-based; conditions: for Inhibition effects on in vitro growth: K562, 48 hours
# Method: as §1, §2
# human lung cancer A-549 = conditions: cited from earlier work
compound,measurement,setting,value
"COc1cc([C@@H]2c3cc4c(cc3C[C@H]3COC(=O)[C@@H]32)OCO4)cc(OC)c1OC [DPT, Deoxypodophyllotoxin]",Inhibition effects on in vitro growth,[1]; 5 × 10^−5M,59.18%
same,Inhibition effects on in vitro growth,[1]; 10^−5M,56%
same,Inhibition effects on in vitro growth,[1]; 10^−6M,53.5%
same,Inhibition effects on in vitro growth,[1]; 10^−7M,52.24%
same,Inhibition effects on in vitro growth,[1]; 10^−8M,50.77%
same,inhibition effects compared with Etoposide,"[1]; A-549, 10^−5 to 10^−8 M",significant better than that of Etoposide
same,Inhibition effects on in vitro growth,[2]; 5 × 10^−5M,84.41%
same,Inhibition effects on in vitro growth,[2]; 10^−5M,58.54%
same,inhibition effects compared with Etoposide,[2]; 10^−5 to 10^−8 M,significant better than that of Etoposide
same,Inhibition effects on in vitro growth,[2]; 10^−6M,55.01%
same,Inhibition effects on in vitro growth,[2]; 10^−7M,54.11%
same,Inhibition effects on in vitro growth,[2]; 10^−8M,52.34%
same,Inhibition effects on in vitro growth,[3]; 5 × 10^−5M,67.05%
same,Inhibition effects on in vitro growth,[3]; 10^−5M,54.02%
same,Inhibition effects on in vitro growth,[3]; 10^−6M,50.95%
same,Inhibition effects on in vitro growth,[3]; 10^−7M,43.77%
same,Inhibition effects on in vitro growth,[3]; 10^−8M,35.82%
same,inhibition effects compared with Etoposide,"[3]; K-562, 10^−5 to 10^−8 M",significant better than that of Etoposide
same,in vitro inhibition effects,human lung cancer A-549,in vitro inhibition effects
